Test results as given in patent US8853188B2, “Compositions and methods for cancer treatment” (Women and Infants Hospital of RI, Inc., priority 2005, dated 2014).
The star is where a group is joined. Cbz = O=C(OCc1ccccc1)*; CH2F = FC*

Key:
panel of cancer cells = assay: Antiproliferative and cytotoxic activity on a panel of cancer cells (MTS, 96 well plates); format: cell-based; settings: parent compound used as control; data not shown
Source text: A panel of cancer cells is used to evaluate the antiproliferative and cytotoxic activities of B3CD and related analogs. The cells include colon (Colo), breast (MCF-7 and MDA-MB-231), lung (A549), prostate PC3 and LNCaP), melanoma (SK-MEL-31), renal (Caki-1), ovarian (OVCAR-3), bladder (T24), pancreatic (BxPC-3), hepatocarcinoma (Hep3B), neuroblastoma (SH-SY5Y), glioblastoma (SNB-19), medulloblastoma (D283 Med), skin (LS123), squamous cell carcinoma (Scc-15), acute promyelocytic leukemia (APL), myeloblastic (HL-60) and myelomonocytic (U937).
The anticancer activity testing will be carried out by high throughput screening. The cancer cells will be cultured in 96 well plates and treated with the library. B3CD has been tested in this system and was effective at a 200 nM dose. For general screening, 2-200 nM doses will be used. Cells will be treated with the compounds for 12, 24, 48 and 72 hours. A 96 well plate format allows testing a large number of compounds simultaneously. An MTS based colorimetric method of evaluation of proliferation will be utilized, which is widely used in cancer drug discovery. The fingerprint of profiled drugs using 60 cell-line screening program by NCl using COMPARE algorithm (Paull K D, Shoemaker R H, Hodes L, Monks A, Scudiero D A, Rubinstein L, Plowman J, Boyd M R. Display and analysis of patterns of differential activity of drugs against human tumor cell lines: development of mean graph and COMPARE algorithm. J Natl Cancer Inst 1989; 81:1088).
(§1) Materials and methods. Proliferation was measured by MTS and BrdU incorporation assays. Apoptosis was assessed by DNA fragmentation, Cell Death Detection ELISA and caspase-3-assays. Effect of B3CD on TrkB signaling by BDNF was assessed by Western Blot analysis of AKT and ERK phosphorylation. The effect on angiogenesis was determined by chick chorioallantoic membrane (CAM) assay and aortic ring assay.

[1] = tested on: VEGF induced angiogenesis; assay: Chick chorioallantoic membrane (CAM) assay; format: in vivo; settings: VEGF present
Experimental: as §1
The antiproliferative effect of B3CD on endothelial cells was further investigated.
The ability of B3CD to inhibit angiogenesis/neovascularization was tested. Preliminary studies were carried out using chick chorioallantoic membrane (CAM) assay. Calcidiol or B3CD were deposited in the presence of growth factor (VEGF) and deposited on the CAM and eggs were incubated for 3 days at 37° C. (3% CO2). The control carried the growth factor alone. VEGF induces angiogenesis which results in sprouting of capillaries from the large vessels. The compounds diffuse out and any inhibitory molecule would reduce the growth of blood vessel network.

SK-N-SH cells [2] = assay: Cell viability by MTS assay; format: cell-based; settings: 0-800 nM, 48 hours
Experimental: (§2) SK-N-SH and SH-SY5Y neuroblastic cells were treated with increasing doses of calcidiol or B3CD (0, 25, 50, 100, 200, 400 and 800 nM) for 48 hours. Cell viability was assessed by MTS assay and proliferation was determined by BrdU incorporation assay.

SK-N-SH cells [3] = assay: Proliferation by BrdU incorporation assay; format: cell-based; settings: 0-800 nM, 48 hours
Experimental: as §2

caspase-3 = assay: Caspase-3 activation with specific substrate in SK-N-SH cells; format: cell-based
Experimental: Caspases are integral to apoptosis in cells. Following the treatment of SK-N-SH cells with 250 nM B3CD, activation of caspase-3 was measured by using specific substrate.

[4] = mouse, in vivo
Experimental: FIG. 6A. In vivo studies to determine apparent systemic toxicity of B3CD. Mice were injected with the specified amounts of B3CD (i.p.) once in 48 hr for 28 days. The animals were weighed to assess the effect of B3CD on change in body weight.
FIG. 6B. At the end of the experiment (6A) mice were sacrificed and blood collected to estimate serum calcium as a measure of hypercalcemia.
A major concern was the potential systemic toxicity of B3CD due to hypercalcemia since B3CD (FIG. 1) is a derivative of calcidiol, which is a family member of calcitriol (Schmidt-Gayk H, Bouillon R, Roth H J. Measurement of vitamin D and its metabolites (calcidiol and calcitriol) and their clinical significance. Scand J Clin Lab Invest Suppl. 1997; 227:35-45). Therapeutic doses of calcitriol lead to increased serum calcium and consequently death; therefore, hypercalcemia is a hallmark of lethality of pharmacologic doses of calcitriol. In the event that further testing in vivo might show lethal calcemic side effects, preliminary studies were carried out to determine any overt toxic effects in a murine model.
The effect of B3CD on serum calcium levels in SCID mice was tested. These studies were carried out in Boston University School of Medicine, Boston, Mass., in accordance with institutional guidelines. B3CD, calcidiol and calcitriol were formulated in 80% polyethylene glycol in PBS and were administered as i.p. injections once in 48 hours for 28 days. Animals were euthanized, sera collected and analyzed immediately for serum calcium in the hospital core facility. The animals were divided into 4 groups of 5 animals each.

[5] = tested on: SH-SY5Y, IMR-32 and SMS-KCNR cells; settings: cells with defects in caspase-8 activation; cited from earlier work
IMR-32 cells = assay: Apoptosis in apoptosis-resistant NB cells; format: cell-based; settings: IMR-32, pretreatment before B3CD
Experimental: (§3) NB is characterized with defective apoptotic pathways. […] Neuronal (N-) type SH-SY5Y and IMR-32 cells, and stromal (S-) type SMS-KCNR cells which are resistant to apoptosis were used. […] A defect in caspase-8 or its activation causes resistance to apoptosis and in turn to chemotherapy in all these cells. On the other hand, these cells carry intact intrinsic apoptotic pathway, and executioner caspase-3 is activated by caspase-9 route.
(§4) In depth studies were carried out to assess the activation of intrinsic and extrinsic apoptotic pathways. […] Caspase-9 was activated by B3CD in these cells (FIG. 10B), indicating an active role of intrinsic pathway of apoptosis. […] However, caspase-8 was undetectable in IMR-32 and SH-SY5Y cells.
(§5) Although caspase-8 was detected in SMS-KCNR cells, it was not activated by B3CD (FIG. 10D). Actin immunoblotting was used as loading control in the above studies (data not shown).

SMS-KCNR cells = assay: Apoptosis in apoptosis-resistant NB cells; format: cell-based; settings: pretreatment before B3CD
Experimental: as §3, §4, §5

Compound: C=C1CC[C@H](O)C/C1=C/C=C1\CCC[C@@]2(C)C1CC[C@@H]2[C@H](C)CCCC(C)(C)O (stereo partly drawn) [calcidiol, (1 S,Z)-3-(2-((1R,7aR,E)-1-((R)-6-hydroxy-6-methylheptan-2-yl)-7a-methyloctahydro-4H-inden-4-ylidene)ethylidene)-4-methylenecyclohexan-1-ol, reference compound]
- antiproliferative, cytotoxic, apoptotic activities (panel of cancer cells): did not exhibit any antiproliferative, cytotoxic, apoptotic activities
- inhibition of angiogenesis / neovascularization (in words) [1]: no inhibition of neovascularization
- viability of SK-N-SH cells (in words) (SK-N-SH cells [2]): did not show any similar effects
- proliferation, BrdU incorporation (SK-N-SH cells [3]): did not show inhibitory activity
- caspase-3 activation (in words) (caspase-3): did not show any significant change

Compound: C=C1/C(=C\C=C2/CCC[C@]3(C)[C@@H]([C@H](C)CCCC(C)(C)O)CC[C@@H]23)C[C@@H](O)C[C@@H]1O [calcitriol, 1,25-dihydroxy-vitamin D3, reference compound]
- clinical signs (lethargy, tolerance to handling, mobility) [4]: appeared lethargic and exhibited a decreased tolerance to handling with reduced mobility

Compound: COc1cccc2c1C(=O)c1c(O)c3c(c(O)c1C2=O)C[C@@](O)(C(=O)CO)C[C@@H]3O[C@H]1C[C@H](N)[C@H](O)[C@H](C)O1 [doxorubicin]
- apoptosis and activation of caspase-9 and -3 [5]: undergo apoptosis and activation of caspase-9 and -3

Compound: Cbz-LEHD-CH2F [reference compound]
- effect of pretreatment on B3CD induced apoptosis (IMR-32 cells): effectively inhibited apoptosis
- effect of pretreatment on B3CD induced apoptosis (SMS-KCNR cells): effectively inhibited apoptosis
